From EP0216028A2, “Use of anthranilic-acid derivatives as anthelmintic medicaments” (HOECHST AKTIENGESELLSCHAFT, priority 1985, dated 1987)
Like-named read-outs stand apart in the source and are kept apart here.

Tests used:
[1] = system: Leberegel (Fasciola hepatica); assay: Chemotherapeutic test in sheep infected with liver fluke (egg count reduction / worm burden); format: in vivo; settings: Wirtstier: Schaf, p.o.; for minimal effective dose: Fasciola hepatica, po, read-out: Dosis (>90% Reduktion der Wurmbürde); for Chemotherapeut. Index: quotient of Dosis tolerata maxima and Dosis curativa minima
Source text: (§1) Zur Feststellung der anthelminthischen Wirkung der Verbindungen der Formel I wurden chemotherapeutische Untersuchungen an ca. 25-30 kg schweren Schaflämmern ausgeführt, die entweder mit Metazerkarien von Fasciola hepatica oder mit Larven von Magen-Darm-Strongyliden, vornehmlich Haemonchus contortus und Trichostongylus colubriformis, oral infiziert worden waren. Nach Ablauf der Präpatenzperiode (Zeit zwischen Infektion und Geschlechtsreife der Parasiten mit beginnender Ausscheidung von Eiern oder Larven) wurde der Parasitenbefall durch Kotuntersuchungen gesichert. […] Unmittelbar danach wurde die Behandlung der Schafe (im allgemeinen 3 - 4 Tiere pro Wirkstoff, mindestens aber 2) vorgenommen. Den Tieren wurde oral oder parenteral eine Suspension von unterschiedlicher Wirkstoffmenge in jeweils 10 ml einer 1%igen Carboxymethylcellulose-Suspension appliziert. Jeweils am 7., 14. und 28. Tag nach der Behandlung wurde wiederum nach den vorstehend angegebenen Verfahren die Eizahl pro Gramm Kot ermittelt und ihre prozentuale Abnahme im Vergleich zum Ausgangswert vor der Behandlung errechnet. Mit einigen Verbindungen wurden außerdem beim Fasciola-Befall noch eine zusätzliche Prüftechnik angewandt: Nach Abschluß der Präpatenzperiode wurde bei Fasciola-positiven Schafen ein künstlicher Gallengang geschaffen, der am Ausgang der Gallenblase ein Sieb enthielt, so daß die nach der Behandlung abgetöteten Leberegel in der Gallenblase aufgefangen werden konnten. Vier bis sieben Tage nach der Behandlung wurden die so operierten und dann behandelten Schafe getötet, die abgetöteten Leberegel in der Gallenblase sowie noch eventuell in der Leber vorhandene lebende Leberegel gezählt und von der gesamten Wurmbürde der Prozentsatz der abgetöteten Parasiten berechnet.
(§2) Der chemotherapeutische Index gibt den Quotienten aus Do- sis tolerata maxima und Dosis curativa minima an.

[2] = system: Magen-Darm-Würmer(Ostertagia, Haemonchur, Trichostrongylus, Cooperia, jeweils verschiedene Spezies); assay: Chemotherapeutic test in sheep infected with gastrointestinal worms (egg count reduction / worm burden); format: in vivo; settings: Tabelle 2, Wirtstier: Schaf, p.o.; for Chemotherapeut. Index: quotient of Dosis tolerata maxima and Dosis curativa minima; for minimal effective dose: Trichostrongylus, po, read-out: Dosis (>90% Reduktion der Wurmbürde)
Source text: as §1, §2

[3] = Tabelle 3 (comparison of isomers)
[4] = Tabelle 1, minimum curative dose

SMILES	minimal effective dose [1, 3]	Chemotherapeut. Index [1, 3]	minimal effective dose [1, 4]	Chemotherapeut. Index ([1]; Tabelle 1)	other results
O=C(Nc1ccc(Cl)cc1)c1ccc(Cl)cc1NS(=O)(=O)c1ccc(Cl)cc1 [V1, 4-Chlor-2-[(4-chlor-phenylsulfonyl)-amino]-benzoesäure-(4-chloranilid), reference compound]	30 mg/kg	2	–	–	–
O=C(Nc1ccc(Cl)cc1)c1ccc(NS(=O)(=O)c2ccc(Cl)cc2)cc1Cl [V2, reference compound]	20 mg/kg	3	–	–	–
O=C(Nc1ccc(Cl)cc1)c1ccc(NS(=O)(=O)c2ccc(Cl)cc2)c(Cl)c1 [V3, reference compound]	30 mg/kg	2	–	–	–
O=C(Nc1ccc(Cl)cc1)c1ccc(Cl)c(NS(=O)(=O)c2ccc(Cl)cc2)c1 [V4, 4-Chlor-3-[(4-Chlorphenylsulfonyl)-amino]-benzoesäure-(4-chlor-anilid), reference compound]	15 mg/kg	4	–	–	–
O=C(Nc1ccc(Cl)cc1)c1cc(NS(=O)(=O)c2ccc(Cl)cc2)ccc1Cl [V5, reference compound]	30 mg/kg	2	–	–	–
O=C(Nc1ccc(Cl)c(Cl)c1)c1ccc(Cl)cc1NS(=O)(=O)c1ccc(Cl)cc1 [V6, 4-Chlor-2-[(4-chlor-phenylsulfonyl)-amino]-benzoesäure-(3,4-dichlor-anilid), reference compound]	30 mg/kg	2	–	–	–
O=C(Nc1ccc(F)cc1)c1cc(NS(=O)(=O)c2ccc(Cl)cc2)ccc1Cl [V7, 2-Chlor-5-[(4-chlor-phenylsulfonyl)-amino]-benzoesäure-(4-fluor-anilid), reference compound]	30 mg/kg	2	–	–	–
O=C(Nc1ccc(Cl)cc1)c1ccc(NS(=O)(=O)c2ccc(Cl)cc2)cc1Br [V8, reference compound]	30 mg/kg	2	–	–	–
O=C(Nc1ccc(Cl)cc1)c1ccc(Br)cc1NS(=O)(=O)c1ccc(Cl)cc1 [V9, 4-Brom-2-[(4-chlor-phenylsulfonyl)-amino]-benzoesäure-(4-chlor-anilid), reference compound]	20 mg/kg	3	–	–	–
O=C(Nc1ccc(Cl)c(Cl)c1)c1ccc(NS(=O)(=O)c2ccc(Cl)cc2)cc1Cl [V10, reference compound]	10 mg/kg	5	–	–	–
O=C(Nc1ccc(Cl)cc1)c1cc(Cl)ccc1NS(=O)(=O)c1ccc(Cl)cc1 [Verbindung 1]	1.5 mg/kg	über 25	1.5 mg/kg	über 25	–
O=C(Nc1ccc(Cl)cc1Cl)c1cc(Cl)ccc1NS(=O)(=O)c1ccc(Cl)cc1 [Verbindung 2, 5-Chlor-2-[(4-chlor-phenylsulfonyl)-amino]-benzoesäure-(2,4-dichlor-anilid)]	–	–	7.5 mg/kg	8	–
O=C(Nc1ccc(Cl)c(Cl)c1)c1cc(Cl)ccc1NS(=O)(=O)c1ccc(Cl)cc1 [Verbindung 3, 5-Chlor-2-t(4-chlor-phenylsulfonyl)-aminoJ-benzoesäure-(3,4-dichloranilid)]	5 mg/kg	10	5 mg/kg	10	–
O=C(Nc1ccc(F)cc1)c1cc(Cl)ccc1NS(=O)(=O)c1ccc(Cl)cc1 [Verbindung 4]	–	20	2.5 mg/kg	20	Dosis (>90% Reduktion der Wurmbürde) [1, 3]: 2,5 mg/kg Körpergewicht
O=C(Nc1ccc(Br)cc1)c1cc(Cl)ccc1NS(=O)(=O)c1ccc(Cl)cc1 [Verbindung 5, 5-Chlor[(4-chlor-phenylsulfonyl)-amino]-benzoesäure-(4-brom-anilid)]	–	–	5 mg/kg	10	–
CN(C(=O)c1cc(Cl)ccc1NS(=O)(=O)c1ccc(Cl)cc1)c1ccc(Cl)cc1 [Verbindung 6]	–	–	–	–	Chemotherapeut. Index [2]: 5; minimal effective dose [2]: 10 mg/kg
O=C(Nc1ccc(Cl)cc1)c1cc(Br)ccc1NS(=O)(=O)c1ccc(Cl)cc1 [Verbindung 9, 5-Brom-2-[(4-chlor-phenylsulfonyl)-amino]-benzoesäure-(4-chlor-anilid)]	2.5 mg/kg	20	5 mg/kg	10	–
O=C(Nc1ccc(Cl)cc1)c1cc(Cl)c(Cl)cc1NS(=O)(=O)c1ccc(Cl)cc1 [Verbindung 12, 4,5-Dichlor-2-[(4-chlor-phenylsulfonyl)-amino]-benzoesäure-(4-chlor-anilid)]	–	–	5 mg/kg	10	–
O=C(Nc1ccc(F)cc1)c1cc(Cl)cc(Cl)c1NS(=O)(=O)c1ccc(Cl)cc1 [Verbindung 14, 3,5-Dichlor-2-[(4-chlor-phenylsulfonyl)-amino]-benzoesäure-(4-fluor-anilid)]	–	–	7.5 mg/kg	5	–
CCCCCCCCCCCCNC(=O)c1cc(Cl)cc(Cl)c1NS(=O)(=O)c1ccc(Cl)cc1 [Verbindung 16]	–	–	–	–	Chemotherapeut. Index [2]: 10; minimal effective dose [2]: 5 mg/kg
CCCCCCCCCCCCNC(=O)c1cc(Cl)ccc1NS(=O)(=O)c1ccc(Cl)cc1 [Verbindung 17, 5-Chlor-2-[(4-chlor-phenylsulfonyl)-amino]-benzoesäure-dodecylamid]	–	–	2.5 mg/kg	20	–
CCCCCCCCCCCCN(C)C(=O)c1cc(Cl)ccc1NS(=O)(=O)c1ccc(Cl)cc1 [Verbindung 19, 5-Chlor-2-[(4-chlor-phenylsulfonyl)-amino]-benzoesäure-(N-methyl-dodecylamid)]	–	–	7.5 mg/kg	5	–
O=C(Nc1ccc(Cl)cc1)c1cc(Cl)ccc1NS(=O)(=O)c1ccc(Cl)cc1Cl [Verbindung 25, 5-Chlor-2-[(2,4-dichlor-phenylsulfonyl)-amino]-benzoesäure-(4-chloranilid)]	–	–	7.5 mg/kg	6	–
O=C(Nc1ccc(Cl)cc1)c1cc(Cl)ccc1NS(=O)(=O)c1ccc(Cl)c(Cl)c1 [Verbindung 26, 5-Chlor-2-[(3,4-dichlor-phenylsulfonyl)-amino]-benzoesäure-(4-chlor-anilid)]	–	über 25	1 mg/kg	über 25	Dosis (>90% Reduktion der Wurmbürde) [1, 3]: 1 mg/kg Körpergewicht
CCCCCCCCNC(=O)c1cc(Cl)ccc1NS(=O)(=O)c1ccc(Cl)c(Cl)c1 [Verbindung 27, 5-Chlor-2-[(3,4-dichlor-phenylsulfonyl)-amino]-benzoesäure-octylamid]	–	–	7.5 mg/kg	8	–
CCN(C(=O)c1cc(Cl)ccc1NS(=O)(=O)c1ccc(Cl)c(Cl)c1)c1ccc(Cl)cc1 [Verbindung 29]	–	–	1.5 mg/kg	über 25	–
CN(c1ccc(Cl)cc1C(=O)Nc1ccc(Cl)cc1)S(=O)(=O)c1ccc(Cl)c(Cl)c1 [Verbindung 30, 5-Chlor-2-[(3,4-dichlor-phenylsulfonyl)-methylamino]-benzoesäure-(4-chlor-anilid)]	–	–	5 mg/kg	10	–
CCCCCCCCCCCCCCCCCCNC(=O)c1cc(Cl)ccc1NS(=O)(=O)c1ccc(Cl)c(Cl)c1 [Verbindung 32, 5-Chlor-2-[(3,4-dichlor-phenyl-sulfonyl)-amino]-benzoesäure-octa-decylamid]	–	–	5 mg/kg	10	–
O=C(Nc1ccc(C(F)(F)F)cc1)c1cc(Cl)ccc1NS(=O)(=O)c1ccc(Cl)c(Cl)c1 [Verbindung 34, 5-Chlor-2-[(3,4-dichlor-phenylsulfonyl)-amino]-benzoesäure-(4-trifluormethyl-anilid)]	–	–	2.5 mg/kg	20	–
CCS(=O)(=O)c1ccc(NS(=O)(=O)c2ccc(Cl)c(Cl)c2)c(C(=O)Nc2ccc(Cl)cc2)c1 [Verbindung 40]	–	–	5 mg/kg	10	–
